Test results published in patent US7029915B2, “Method for differentiating rat hepatic stem cells to insulin-producing cells” (University of Florida Research Foundation, Inc., priority 2002, dated 2006).

How the values were obtained:
hepatic stem cells = test: Morphology of spheroid cell clusters in high-glucose hepatic stem cell cultures; format: cell-based, rat; conditions: five to seven days in 10 mM nicotinamide, high glucose (23 mM) culture
Procedure: To induce trans-differentiation, the cells were replated and cultured in RPMI 1640 medium supplemented with 10% FCS and 17.5 mM (23 mM final concentration) glucose. After about two months, scattered small spheroid cell clusters began to form on top of the confluent cell monolayer. Individual spheroids from these cell cultures were selected for clonal passage and were subjected several times to the high glucose (23 mM) culturing process described above. The resultant cells reached confluence, and by day 14 formed additional clusters when maintained under the high glucose conditions. […] Multiple clusters also became connected by duct-like structures.

[1] = test system: trans-differentiated hepatic stem cells; test: Insulin content and secretion by immunoprecipitation and Western blotting; format: cell-based, rat
Procedure: Measurement of insulin content and secretion by immunoprecipitation and Western blotting. Confluent cultures of trans-differentiated hepatic stem cells were maintained in RPMI 1640 plus 10% fetal calf serum in the presence or absence of 10 mM nicotinamide for 7 days. The cells were then switched to serum-free medium containing 0.5% BSA for 5 hrs, washed twice with serum-free medium, then stimulated with an additional 17.5 mM glucose for 2 hrs. The culture medium was collected and stored at −70° C. for assay of secreted insulin. Intracellular insulin was extracted with lysis buffer. The presence of insulin in the culture media and cell lysates was determined by immunoprecipitation with anti-rabbit-insulin polyclonal antibodies (Santa Cruz Biotechnology), followed by separation of the precipitated material by 18% SDS-PAGE, transfer to nylon membrane, and blotting with anti-insulin antibodies as described (Yang, et al., J. Biol. Chem. 269:7156–7162, 1994). Cell lysates (150 μg) or culture media (1 ml) from each culture were used for the immunoprecipitation. Normal rabbit serum was used as primary antibody control, and culture medium containing 0.5% BSA was used as a control for secreted insulin measurements. […] Insulin content in cells and in the media was determined by pooling cell lysates and culture medium from three separate cultures.

NC(=O)c1cccnc1 [nicotinamide]
number and dimension of spheroid cell clusters (hepatic stem cells): markedly increased
increase of insulin in cell lysates versus untreated cells (densitometric analysis) ([1]; 10 mM nicotinamide for 7 days before stimulation with additional 17.5 mM glucose for 2 hrs, cell lysates): 3.4 times
levels of insulin detected in cell lysates and secreted into culture medium ([1]; growth in nicotinamide before glucose stimulation, Western blot, FIG. 2): increased
